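Five compound concentrations were applied to cells in 96-well plates for 48 hours; endpoints were derived by simple linear interpolation of the resulting dose-response curve. TGI: total growth inhibition.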
Columns and labels:
Assay in all cases: NCI tumour cell line growth inhibition, 48 h
786-0 renal = test system: 786-0 renal
A498 renal = test system: A498 renal
A549 NSCLC = test system: A549 NSCLC
ACHN renal = test system: ACHN renal
BT-549 breast = test system: BT-549 breast
CAKI-1 renal = test system: CAKI-1 renal
CCRF-CEM leukemia = test system: CCRF-CEM leukemia
COLO 205 colon = test system: COLO 205 colon
DU-145 prostate = test system: DU-145 prostate
EKVX NSCLC = test system: EKVX NSCLC
HCT-116 colon = test system: HCT-116 colon
HCT-15 colon = test system: HCT-15 colon
HL-60(TB) leukemia = test system: HL-60(TB) leukemia
HOP-62 NSCLC = test system: HOP-62 NSCLC
HOP-92 NSCLC = test system: HOP-92 NSCLC
HS 578T breast = test system: HS 578T breast
HT29 colon = test system: HT29 colon
IGROV1 ovarian = test system: IGROV1 ovarian
K-562 leukemia = test system: K-562 leukemia
KM12 colon = test system: KM12 colon
LOX IMVI melanoma = test system: LOX IMVI melanoma
M14 melanoma = test system: M14 melanoma
MALME-3M melanoma = test system: MALME-3M melanoma
MCF7 breast = test system: MCF7 breast
MDA-MB-231 breast = test system: MDA-MB-231 breast
MDA-MB-435 = test system: MDA-MB-435
MDA-N = test system: MDA-N
MOLT-4 leukemia = test system: MOLT-4 leukemia
NCI-H226 lung = test system: NCI-H226 lung
NCI-H23 lung = test system: NCI-H23 lung
NCI-H522 lung = test system: NCI-H522 lung
NCI/ADR-RES ovarian = test system: NCI/ADR-RES ovarian
OVCAR-3 ovarian = test system: OVCAR-3 ovarian
OVCAR-4 ovarian = test system: OVCAR-4 ovarian
OVCAR-5 ovarian = test system: OVCAR-5 ovarian
OVCAR-8 ovarian = test system: OVCAR-8 ovarian
PC-3 prostate = test system: PC-3 prostate
RPMI-8226 leukemia = test system: RPMI-8226 leukemia
RXF 393 renal = test system: RXF 393 renal
SF-268 CNS = test system: SF-268 CNS
SF-295 CNS = test system: SF-295 CNS
SF-539 CNS = test system: SF-539 CNS
SK-MEL-2 melanoma = test system: SK-MEL-2 melanoma
SK-MEL-28 melanoma = test system: SK-MEL-28 melanoma
SK-MEL-5 melanoma = test system: SK-MEL-5 melanoma
SK-OV-3 ovarian = test system: SK-OV-3 ovarian
SN12C renal = test system: SN12C renal
SNB-19 CNS = test system: SNB-19 CNS
SNB-75 CNS = test system: SNB-75 CNS
SR leukemia = test system: SR leukemia
SW-620 colon = test system: SW-620 colon
T-47D breast = test system: T-47D breast
TK-10 renal = test system: TK-10 renal
U251 CNS = test system: U251 CNS
UACC-257 melanoma = test system: UACC-257 melanoma
UO-31 renal = test system: UO-31 renal
HCC-2998 colon = test system: HCC-2998 colon
NCI-H460 lung = test system: NCI-H460 lung
UACC-62 melanoma = test system: UACC-62 melanoma

`Cc1nc2ccc(S(=O)(=O)O)cc2c(=O)n1-c1ccc(C(=O)NN2C(=O)C(Cl)C2c2ccccc2O)cc1` (configuration not stated) gave a TGI (786-0 renal) greater than 100 µM, a TGI (A498 renal) greater than 100 µM and a TGI (A549 NSCLC) greater than 100 µM. It also gave a TGI (ACHN renal) greater than 100 µM, a TGI (BT-549 breast) greater than 100 µM and a TGI (CAKI-1 renal) greater than 100 µM. For the same compound, the TGI (CCRF-CEM leukemia) was greater than 100 µM, the TGI (COLO 205 colon) was greater than 100 µM and the TGI (DU-145 prostate) was greater than 100 µM. The TGI (EKVX NSCLC) was greater than 100 µM, the TGI (HCT-116 colon) was greater than 100 µM and the TGI (HCT-15 colon) was greater than 100 µM. For the same compound, the TGI (HL-60(TB) leukemia) was greater than 100 µM, the TGI (HOP-62 NSCLC) was greater than 100 µM and the TGI (HOP-92 NSCLC) was greater than 100 µM. It also gave a TGI (HS 578T breast) greater than 100 µM, a TGI (HT29 colon) greater than 100 µM and a TGI (IGROV1 ovarian) greater than 100 µM. The TGI (K-562 leukemia) was greater than 100 µM, the TGI (KM12 colon) was greater than 100 µM and the TGI (LOX IMVI melanoma) was greater than 100 µM. The TGI (M14 melanoma) was greater than 100 µM, the TGI (MALME-3M melanoma) was greater than 100 µM and the TGI (MCF7 breast) was greater than 100 µM. For the same compound, the TGI (MDA-MB-231 breast) was greater than 100 µM, the TGI (MDA-MB-435) was greater than 100 µM and the TGI (MDA-N) was greater than 100 µM. It also gave a TGI (MOLT-4 leukemia) greater than 100 µM, a TGI (NCI-H226 lung) greater than 100 µM and a TGI (NCI-H23 lung) greater than 100 µM. For the same compound, the TGI (NCI-H522 lung) was greater than 100 µM, the TGI (NCI/ADR-RES ovarian) was greater than 100 µM and the TGI (OVCAR-3 ovarian) was greater than 100 µM. It also gave a TGI (OVCAR-4 ovarian) greater than 100 µM, a TGI (OVCAR-5 ovarian) greater than 100 µM and a TGI (OVCAR-8 ovarian) greater than 100 µM. For the same compound, the TGI (PC-3 prostate) was greater than 100 µM, the TGI (RPMI-8226 leukemia) was greater than 100 µM and the TGI (RXF 393 renal) was greater than 100 µM. For the same compound, the TGI (SF-268 CNS) was greater than 100 µM, the TGI (SF-295 CNS) was greater than 100 µM and the TGI (SF-539 CNS) was greater than 100 µM. For the same compound, the TGI (SK-MEL-2 melanoma) was greater than 100 µM, the TGI (SK-MEL-28 melanoma) was greater than 100 µM and the TGI (SK-MEL-5 melanoma) was greater than 100 µM. The TGI (SK-OV-3 ovarian) was greater than 100 µM, the TGI (SN12C renal) was greater than 100 µM and the TGI (SNB-19 CNS) was greater than 100 µM. It also gave a TGI (SNB-75 CNS) greater than 100 µM, a TGI (SR leukemia) greater than 100 µM and a TGI (SW-620 colon) greater than 100 µM. The TGI (T-47D breast) was greater than 100 µM, the TGI (TK-10 renal) was greater than 100 µM and the TGI (U251 CNS) was greater than 100 µM. For the same compound, the TGI (UACC-257 melanoma) was greater than 100 µM and the TGI (UO-31 renal) was greater than 100 µM.
Work on `CCc1ccc2[nH]c(O)c(-c3[nH]c4ccccc4c3N=O)c2c1` yielded a TGI (786-0 renal) of 18.9 µM, a TGI (A498 renal) of 15 µM and a TGI (A549 NSCLC) of 37 µM. For the same compound, the TGI (ACHN renal) was 14.7 µM, the TGI (BT-549 breast) was 20.6 µM and the TGI (CAKI-1 renal) was 19.8 µM. For the same compound, the TGI (CCRF-CEM leukemia) was greater than 100 µM, the TGI (COLO 205 colon) was 23.2 µM and the TGI (DU-145 prostate) was 22.5 µM. For the same compound, the TGI (EKVX NSCLC) was 20 µM, the TGI (HCC-2998 colon) was 8.52 µM and the TGI (HCT-116 colon) was 10 µM. It also gave a TGI (HCT-15 colon) of 15.1 µM, a TGI (HOP-62 NSCLC) of 27.2 µM and a TGI (HS 578T breast) of 30.5 µM. For the same compound, the TGI (HT29 colon) was 25.5 µM, the TGI (IGROV1 ovarian) was 18.6 µM and the TGI (K-562 leukemia) was 97.1 µM. The TGI (KM12 colon) was 4.51 µM, the TGI (LOX IMVI melanoma) was 26.7 µM and the TGI (M14 melanoma) was 25.3 µM. For the same compound, the TGI (MALME-3M melanoma) was 21.6 µM, the TGI (MCF7 breast) was 6.05 µM and the TGI (MDA-MB-231 breast) was 40.7 µM. The TGI (MDA-MB-435) was 21.9 µM, the TGI (MDA-N) was 20.5 µM and the TGI (MOLT-4 leukemia) was greater than 100 µM. It also gave a TGI (NCI-H226 lung) of 62.5 µM, a TGI (NCI-H23 lung) of 19 µM and a TGI (NCI-H460 lung) of 21 µM. It also gave a TGI (NCI-H522 lung) of 16 µM, a TGI (NCI/ADR-RES ovarian) of 48.8 µM and a TGI (OVCAR-3 ovarian) of 14.4 µM. It also gave a TGI (OVCAR-4 ovarian) of 21.8 µM, a TGI (OVCAR-5 ovarian) of 58.2 µM and a TGI (OVCAR-8 ovarian) of 32.2 µM. For the same compound, the TGI (PC-3 prostate) was 19.8 µM, the TGI (RPMI-8226 leukemia) was greater than 100 µM and the TGI (RXF 393 renal) was 11.2 µM. For the same compound, the TGI (SF-268 CNS) was 22.3 µM, the TGI (SF-295 CNS) was 20.5 µM and the TGI (SK-MEL-2 melanoma) was 15.3 µM. It also gave a TGI (SK-MEL-28 melanoma) of 26.7 µM, a TGI (SK-MEL-5 melanoma) of 13.6 µM and a TGI (SK-OV-3 ovarian) of 12.1 µM. For the same compound, the TGI (SN12C renal) was 18 µM, the TGI (SNB-19 CNS) was 31.6 µM and the TGI (SNB-75 CNS) was 28.9 µM. For the same compound, the TGI (SR leukemia) was greater than 100 µM, the TGI (SW-620 colon) was 89.9 µM and the TGI (T-47D breast) was 32.8 µM. It also gave a TGI (TK-10 renal) of 23.7 µM, a TGI (U251 CNS) of 21.5 µM and a TGI (UACC-257 melanoma) of 28.5 µM. It also gave a TGI (UACC-62 melanoma) of 23 µM and a TGI (UO-31 renal) of 12 µM.
